Source: patent US20060135510A1 (The Trustees of the University of Pennsylvania, priority 2004, published 2006)

Key:
Akt = test: Western blot analysis of Akt phosphorylation in SQ20B cells; assay type: cell-based, human
Description: Using Western blot analysis, a human head-and-neck cancer cell line, SQ20B, (American Type Culture Collection; Manassas, Va.) containing a constitutively-active EGFR receptor and thus, increased signaling through PI3K, was examined for Akt phosphorylation.
Cells were lysed without trypsinization by rinsing culture dishes once with PBS followed by lysis with reducing Laemeli sample buffer. Samples were boiled, sheared, and clarified by centrifugation and stored at −20° C. […] Membranes were blocked in PBS containing 0.1% Tween-20 and 5% powdered milk before primary antibody addition. The dilution of the primary antibody was 1:2000. Antibody binding was detected using the ECL chemiluminescence kit (Amersham, Arlington Heights, Ill.). Images were digitized using an Arcus II scanner, and figures were assembled using Adobe Photoshop 3.0 and Microsoft Power Point programs.

SQ20B cells = test: Clonogenic assay, radiosensitization of SQ20B cells; assay type: cell-based, human
Description: Cultures in log growth phase were counted and plated in 60-mm dishes containing 4 ml of media. The cells were allowed to attach and inhibitors were added to cultures at least one hour prior to radiation. Cells were irradiated with a Mark I cesium irradiator (J. L. Shepherd, San Fernando, Calif.) at a dose rate of 1.6 Gy/min. Colonies were stained and counted 10-14 days after irradiation. Typically, at least 6 dishes are prepared at each dose level of radiation.
(§1) Cultures of cells in log growth phase were counted and plated in 60-mm dishes containing 4 ml of media. […] Cells were irradiated with a Mark I cesium irradiator (J. L. Shepherd, San Fernando, Calif.) at a dose rate of 1.6 Gy/min. Colonies were stained and counted 10-14 days after irradiation. A light box was used to assist in counting colonies. The surviving fraction was calculated by dividing the number of colonies formed by the number of cells plated times plating efficiency (Table 1). Each point value represents the mean surviving fraction from at least six replicate dishes.

T24 = test: Clonogenic assay, radiation sensitization of T24 cells; assay type: cell-based, human; conditions: control SF2 0.560 +/− 0.061
Description: as §1

MIAPACA2 = test: Clonogenic assay, radiation sensitization of MIAPACA2 cells; assay type: cell-based; conditions: control SF2 0.906 +/− 0.086
Description: as §1

A549 = test: Clonogenic assay, radiation sensitization of A549 cells; assay type: cell-based; conditions: control SF2 0.570 +/− 0.042
Description: as §1

REF = test: Clonogenic assay, radiation sensitization of REF cells; assay type: cell-based; conditions: control SF2 0.408 +/− 0.040
Description: as §1

SQ20B xenograft tumors = test: In vivo to in vitro clonogenic assay in nude mice with SQ20B tumors; parameters: species or system mouse; conditions: osmotic pump placed 2 days prior, 8 Gy, FIG. 11
Description: The mice in the study had SQ20B xenograft tumors on a hind leg. The pump was placed into the mouse 2 days prior to experiment. On the day of the experiment, the mouse was anesthetized and irradiated to 8 Gy. The tumor was then harvested and a cell suspension made. The cells were plated and the plating efficiency determined to indicate the number of cells that were viable and able to reproduce by forming colonies in each individual group (plating efficiency).
FIG. 8 illustrates the results of an in vivo to in vitro clonogenic assay in nude mice with SQ20B tumors.

[1] = Amprenavir by pump + 8 Gy vs 8 Gy alone, right hind leg
[2] = dose of about 1200 mg bid; cited from earlier work

SMILES: CC(C)CN(C[C@@H](O)[C@H](Cc1ccccc1)NC(=O)O[C@H]1CCOC1)S(=O)(=O)c1ccc(N)cc1 [Amprenavir, amprenavir]
- signaling in the Ras pathway (Akt; FIG. 4, SQ20b cells and T24 cells): inhibits
- phosphorylation of Akt at Ser 473 (Akt; SQ20B cells, 10 μM Amprenavir, Western blot): down-regulation
- phosphorylation of Akt at the Thr 308 site (Akt; SQ20B cells, 10 μM or 20 μM Amprenavir): no change
- phosphorylation of Akt at Ser 473 (Akt; SQ20B cells, 20 μM Amprenavir, Western blot (FIG. 3 and FIG. 5)): abolished
- survival difference in cell kill numbers (SQ20B cells; 30 fractions of 2 Gy, SF2 0.51 vs 0.7): ~4 log
- surviving fraction after 2 Gy (SF2) (SQ20B cells; SQ20B cells, 5 μM Amprenavir + 2 Gy radiation, control 70% (FIG. 6)): 51%
- Amprenavir SF2 (SQ20B cells; SQ20B, control SF2 0.691 +/− 0.042): 0.432 +/− 0.017
- survival value after 30 fractions of 2 Gy (SQ20B cells; calculated from SF2 0.51, without drug 2.25×10^−5): 1.68×10^−9
- cell kill, combination of radiation and Amprenavir (SQ20B cells; clonogenic assay in vitro, FIG. 7): increase cell kill
- Amprenavir SF2 (T24): 0.370 +/− 0.022
- Amprenavir SF2 (MIAPACA2): 0.664 +/− 0.051
- Amprenavir SF2 (A549): 0.487 +/− 0.030
- Amprenavir SF2 (REF): 0.402 +/− 0.136
- cell kill, combination of radiation and Amprenavir (SQ20B xenograft tumors): significant increase in cell kill
- leg contracture or fibrosis [1]: No differences
- peak plasma concentration [2]: 15.1 µM
- trough plasma concentration [2]: 0.63 µM
